| Compound | melting point |
| --- | --- |
| COc1cc([N+](=O)[O-])ccc1OCC(=O)C1CC1 | 112 to 113 °C |
| COc1cc2c(cc1OC)OCCC(C(=O)N1CCN(C(=O)c3cc(OC)c(OC)c(OC)c3)CC1)=C2 | 132 to 134 °C |
| CC(C)(C)CCC(=S)SC(C)(C)C | 98 to 99 °C |
| CS(=O)c1ccc(-c2coc3ccc(-c4nnc(SCc5cccc(C(F)(F)F)c5)o4)cc23)cc1 (stereo unspecified) | 176 to 177 °C |
| COc1ccc(C(=O)Nc2ccc(N3CCCC3)cc2C(C)=O)cc1 | 174 to 175 °C |
| CC(C)c1c(Sc2cccc(Cl)c2)nc(CO)n1C | 105 to 106 °C |
| Cc1ncc(-c2ccc([C@H](C)N3CC[C@](CC(C)(C)O)(c4ccccc4)OC3=O)cc2)cn1 | 112 to 115 °C |
| Cc1sc(C(=O)OCc2ccccc2)cc1NC(=O)Cc1ccccc1 | 173 to 174 °C |
| O=[N+]([O-])c1cccc(P(=O)(O)O)c1 | 148 to 155 °C |
| Nc1onc(C(F)(F)F)c1-c1ccccc1 | 89 to 91 °C |
| CON(C)C(=O)c1cc(-n2c(=O)cc(C(F)(F)F)[nH]c2=O)c(F)cc1Cl | > 220 °C |
| O=c1ccc2cc(-c3cccnc3)ccc2[nH]1 | 217 to 218 °C |
| CC(C)c1ccc(OC(Cc2ccc(OCCNC(=O)c3ccc(-c4ccc(F)cc4)nc3)cc2)C(=O)O)cc1 (stereo unspecified) | 199 to 200 °C |
| C[C@H](CC(F)(F)F)[C@@H](CO)NS(=O)(=O)c1ccc(Cl)s1 | 132 to 133 °C |
| CCOC(=O)c1sc(C(=O)OCC)c2c1OCC(CC)(CC)CO2 | 100 °C |
| O=C(N1CCN(c2ccccc2)CC1)N1CCc2ccccc2CO1 | 123 to 125 °C |
| CC1=Nc2c3cc(-c4ccccc4)nc-3ccn2C1 | 222 °C |
| CCNC1=CC(=O)CC1 | 136 °C |
| COc1ccc2c(Cl)nccc2c1 | 72 to 74 °C |
| O=C(Oc1ccccc1)N1CCC(c2noc3cccc(F)c23)CC1 | 108 to 110 °C |
| O=C1CCC(c2cccc(F)c2)(c2cccc(F)c2)[C@@H]2CN(Cc3ccccc3)C[C@H]12 (racemic) | 124 °C |
| COCOc1ccc(C=CC(C)=O)cc1OC | 73 to 75 °C |
| Nc1noc(C23CCCN(C2)C3)n1 | 167 to 170 °C |
| O=C1CC2OC(CBr)CN12 (stereo unspecified) | 49 to 50 °C |
| COC(=O)C1=C(C)NC(C)=C(C(=O)OC(C)C)C1c1ccccc1[N+](=O)[O-] (stereo unspecified) | 174 °C |
| Nc1nc2c(Cl)cc(C(F)(F)F)cc2[nH]c1=O | 270 to 272 °C |

| Compound | melting point |
| --- | --- |
| CCOC(=O)C1=C(C)NC(C)=C(C(=O)OCC)C1c1cc(Br)ccc1F | 118 to 119 °C |
| O=C(Nc1c[nH]nc1C(=O)NCCO)c1ccccn1 | 155 to 156 °C |
| COc1c(-c2ccc3cc(NS(C)(=O)=O)ccc3c2)cc(N2CCCC2=O)cc1C(C)(C)C | 229 to 230 °C |
| Nc1cc(OCC2=CCCSC2)c(Cl)cc1F | 73 to 74 °C |
| Oc1cc(F)cc(C2(O)CCOCC2)c1 | 158 to 160 °C |
| COc1cccc2c1OC(CO)CN2 (stereo unspecified) | 108 to 110 °C |
| COc1nc(Cc2ccccc2[N+](=O)[O-])nc(OC)n1 | 91.6 to 92.3 °C |
| O=C1c2c(Cl)cccc2-c2n[nH]c3cccc1c23 | 310 °C |
| CCCCN(CCCC)c1ccc(C=Cc2ccc(C(C#N)=C(C#N)C#N)s2)c(OCc2ccccc2)c1 | 125 to 130 °C |
| O=C(c1ccc([N+](=O)[O-])cc1)N1CCN(c2ccncc2)CC1 | 158 to 160 °C |
| CSc1ncc(C#N)c(NC2CCCC2)n1 | 119 to 122 °C |
| CCCc1ccc2c(c1)C=Cc1cc(C)ccc1C2c1cn(-c2ccnc(N(C)CC(=O)O)n2)c(=O)[nH]c1=S (stereo unspecified) | 145 to 150 °C |
| COC(=O)c1cncc(OC)n1 | 73 °C |
| COc1cccc(CC(=O)O)c1OCCCc1cn(-c2ccc(C#N)cn2)nc1C(C)C | 144 to 145 °C |
| Cn1c(=O)c(C#N)c(N2CCN(C(=O)c3ccco3)CC2)c2cc(F)ccc21 | 263 °C |
| COc1ncc(C(=O)Nc2c(F)cncc2F)cc1OC1CCCC1 | 210 to 211 °C |
| COc1nc(Cl)nc(NC(=O)NS(=O)(=O)c2ccccc2OC(F)F)n1 | 167 to 168 °C |
| OC(c1ccc(Cl)cc1)(c1ccc(Cl)cc1)C1CO1 (stereo unspecified) | 87 to 88 °C |
| COc1cccc2c1CC1(CCCCC1)C2=O | 94 to 96 °C |
| COC(=O)c1cc(C(=O)c2c(C)c(-c3cccc(OCC(=O)OC(C)(C)C)c3)c3ccccn23)ccc1N | 81 °C |
| O=C(Cc1ccc2ccn(C3CCN(CCc4ccc(F)cc4)CC3)c2c1)NCCO | 140 to 141 °C |
| CC(C)COc1ccccc1C(=N)N | 49 to 51 °C |
| Cc1nn(CCCl)c(-c2ccc(F)cc2)c1-c1ccc2c(c1)NC(=O)CO2 | 216 °C |
| CSCc1c(C(=O)NN2CCCCC2)nn(-c2ccc(Cl)cc2Cl)c1-c1ccc(Cl)cc1 | 183 °C |
| COc1ccc(CCC(N)CC(=O)O)cc1 (stereo unspecified) | 180 to 184 °C |
| CCCCCC(=O)c1ccc(OCc2ccc3ccccc3n2)cc1 | 78 to 80 °C |

| Compound | melting point |
| --- | --- |
| COc1cc(C2CCN(CC(N)=O)CC2)ccc1Nc1ncc2ccc(-c3ccccc3N(C)S(C)(=O)=O)n2n1 | 103 to 112 °C |
| CC(=O)Oc1ccc(CC2SC(=O)N(C(c3ccccc3)(c3ccccc3)c3ccccc3)C2=O)cc1 (stereo unspecified) | 152 to 156 °C |
| C[C@@H](O)[C@H](NC(=O)OC(C)(C)C)C(=O)NOCc1ccccc1 | 87 °C |
| COC(c1ccc(C)cc1)c1ccccc1Br (stereo unspecified) | 98 to 99 °C |
| C=C(C)C(=O)NC1=NN(c2ccc(Cl)c(Cl)c2)C(=O)C1 | 212 to 213 °C |
| CC1(c2ccccc2)OC(=S)N(Nc2ccccc2)C1=O (stereo unspecified) | 81 to 85 °C |
| CCOC(=O)c1ccc(OCCCCCCCCCCC(C(=O)CC)C(=O)CC)cc1 | 45 to 46 °C |
| NC(=O)c1nc(-c2cccc(O)c2)nc2c1[nH]c(=O)n2CC1CCOCC1 | 363 to 365 °C |
| C[C@]12CCC(=O)N[C@@H]1CCc1cc(-c3ccc([N+](=O)[O-])cn3)ccc12 | 123 to 124 °C |
| NC(=O)CON=C(C(=O)O)c1ccco1 | 143 to 145 °C |
| CNc1nc(C(=O)N(C)Cc2cc(C(F)(F)F)cc(C(F)(F)F)c2)c(-c2ccccc2)c2ccccc12 | 213 to 214 °C |
| CNC(=S)C1=CC(CF)(CF)Oc2ccc(C(F)(F)C(F)(F)F)cc21 | 148 to 149 °C |
| O=C1N=C(c2ccccc2OCC(F)(F)F)N=C2N=CN=C12 | 261 to 263 °C |
| CCn1c(=O)c2[nH]c(/C=C/c3ccc(OC)c(OC)c3Cl)nc2n(CC)c1=O | 278 to 281 °C |
| O=C(c1cc([N+](=O)[O-])ccc1Cl)c1sccc1Cl | 114 to 116 °C |
| c1ccc(-c2cccc(-c3nc4c5ccccc5ccn4n3)c2)cc1 | 167 to 169 °C |
| CCOC(=O)c1cn(-c2ccc(OC)cc2)[nH]c1=O | 125 to 127 °C |
| CCOC(=O)c1csc(/C=C/c2cn(-c3ccccc3)nc2OCc2ccc(OCc3nc(-c4ccco4)oc3C)c(OC)c2)n1 | 156 to 157 °C |
| CN(C)c1ccc(C=C2Cc3cc4c(cc3C2=O)CCCC4)cc1 | 161 to 163 °C |
| CCCn1nc(-c2ccc(OC)cc2)cc(C(=O)OC)c1=O | 105 to 106 °C |
| O=C1NC(=O)C(Cc2ccc(O)cc2)S1 (stereo unspecified) | 151 to 152 °C |
| Fc1ccc(-c2ccc(N3CCCN(c4ccc(-c5ccc(F)cc5)cn4)CC3)nc2)cc1 | 268 to 270 °C |
| CCOC(=O)CCCC(=O)c1ccc(Oc2ccccc2)cc1 | 61 to 62 °C |
| CC(=O)c1ccc(OCCCCCOc2ccc3c(=O)cc(C(=O)O)oc3c2)cc1O | 226 to 228 °C |
| O=C1CCCN(C(=O)c2ccccc2)C(=O)CCc2cc(Cl)ccc21 | 129 to 131 °C |
| CC(=O)c1cc(CC(=O)O)cc2c1NC(C(F)(F)F)CC2 (stereo unspecified) | 173 to 174 °C |

| Compound | melting point |
| --- | --- |
| Cc1ccc(C)c(CN2CCN(C)CC(NC(=O)c3n[nH]c4ccccc34)C2)c1 (stereo unspecified) | 168 to 170 °C |
| O=C(CN1CCCC1=O)NCC(=O)Nc1ccncc1 | 243 to 245 °C |
| C=C(C)Cn1c(C)c(C)c2cnnc(OCc3ccc(F)cc3)c21 | 118 to 120 °C |
| O=C(NCc1ccc2c(c1)OCO2)c1ccc2[nH]c(=O)n(Cc3ccccc3)c(=O)c2c1 | 176 °C |
| CNC(=O)C(C)NC(=O)OC(C)(C)C (stereo unspecified) | 117 to 118 °C |
| CN(C)c1ccc(-c2cnc(N)c([N+](=O)[O-])c2)cc1 | 212 °C |
| O=c1ccc(-c2ccc(OC(F)(F)F)cc2)n[nH]1 | 178 °C |
| CCC(=O)Nc1ccc2ncnc(Nc3cccc(Br)c3)c2c1 | 265 to 266 °C |
| O=[N+]([O-])C=C1SCCCN1S(=O)(=O)CCCCl | 99 °C |
| C=CCOC1=C(O)[C@@H](CC/C=C\CCCCCCCCCCCCCC)OC1=O | 49 to 53 °C |
| Cc1nc2cc(NC(=O)c3cc4cc(C(F)(F)F)ccc4n3Cc3cccc(F)c3)ccn2c1C | 280 to 281 °C |
| Nc1nc(O)ncc1-c1cccc(Cl)c1Cl | 330 to 334 °C |
| Cc1cc(C(N)=O)ncc1C(SCCC=C(F)F)c1c(F)ccc(F)c1F (stereo unspecified) | 97 to 98 °C |
| O[C@H]1c2cc(Oc3ccc4ccccc4n3)ccc2OC[C@H]1Oc1cccnc1 (relative stereo) | 112 to 114 °C |
| CNc1nc(-c2cccnc2)nc(SC)c1C(=O)Nc1ccc(OC)cc1 | 184 to 197 °C |
| CC(O)CC(=O)c1cccc2c1nc(-c1c(F)cccc1F)n2Cc1c(F)cccc1F (stereo unspecified) | 149 to 150 °C |
| CC1=C(C)C(=O)C(C(CCCCCC(=O)NCC(=O)O)c2ccccc2)=C(C)C1=O (stereo unspecified) | 162 to 164 °C |
| COc1ccccc1-n1c(=O)[nH]c2c(C(N)=O)nc(-c3cccc4[nH]ccc34)nc21 | 312 to 313 °C |
| COc1cc(OC)c(N2CCCC2)cc1/C=C/C(=O)c1ccc(S(=O)(=O)Nc2ccccn2)cc1 | 124 to 128 °C |
| COc1cc(C(=O)NS(=O)(=O)c2ccccc2C)ccc1Cc1c[nH]c2ccc(NC(=O)CC3CCCC3)cc12 | 248 to 250 °C |
| CNC1C(C)CN(c2c(F)c(N)c3c(=O)c(C(=O)O)cn(C4CC4)c3c2OC)CC1C (stereo unspecified) | 224 to 226 °C |
| CS(=O)(=O)c1ccc(-c2[nH]nc(OC3CCCCC3=O)c2-c2ccc(F)cc2)cc1 (stereo unspecified) | 113 to 116 °C |
| CC(=O)OCc1c(C(=O)C(=O)O)c2cc(-c3cccc(C)c3)ccc2n1Cc1ccc(C)cc1 | 89 to 90 °C |
